Results as given in publication PMC8767159, “Multiparameter Optimization of Trypanocidal Cruzain Inhibitors With In Vivo Activity and Favorable Pharmacokinetics” (Frontiers in Pharmacology, 2022).

Tests used:
T. cruzi (Y strain) = assay: In vivo trypanocidal activity in mice infected with T. cruzi (Y strain); parameters: species or system Trypanosoma cruzi; details: for % reduction of peak parasitemia: vs vehicle
Description: Thirty-day-old female Swiss mice weighing 20–25 g and procured from the Center for the Development of Experimental Models for Medicine and Biology (CEDEME/UNIFESP) served as the subjects for these experiments. Animals were housed (5–6 per cage) in polypropylene cages and kept under controlled temperature (22–23°C) and humidity on a 12-h light/dark cycle (12 h light, 12 h dark; lights on at 6:30 am). Rodent chow and water were available ad libitum throughout the experiments. The Committee of Ethics in Research of the Universidade Federal de São Paulo approved all the experiments (CEUA n° 5301080816).
Treatment started on day five after infection with T. cruzi. The following parameters were evaluated in these experiments: level of parasitemia after the treatment, suppression of peak parasitemia (day seven after the infection), and reduction of parasitemia on the peak day (day seven after infection). Parasitemia was expressed as the number of T. cruzi trypomastigotes per 5 µl of blood and was calculated using the Brener method ([Brener, 1962]). […] On the seventh day of treatment, when parasitemia reached its peak, one-way ANOVA indicated a treatment effect (F3,16 = 7.47; p = 0.002). […] This dose-response effect is likely associated with the modulation of physiological systems that increase the susceptibility of the animals to infection with T. cruzi at high doses of the compound. […] The results of the in vivo studies indicate a moderate ability of 28 to suppress peak parasitemia at 150 mg/kg.

[1] = Cytotoxicity MTS assay in HFF-1 fibroblasts; format: cell-based; details: human HFF-1 fibroblasts
Description: The synthesized compounds were evaluated for their cytotoxicity against HFF-1 cells using the MTS assay (Promega, Madison, WI) ([Barltrop et al., 1991]) as previously described ([Ferreira et al., 2019]). HFF-1 fibroblasts were plated at 2 × 10^3/well in 96-well culture plates in RPMI 1640 without phenol red enriched with 10% FCS and incubated overnight at 37°C and 5% CO2. Next, 7 concentrations (0.1–100 µM) of the compounds were added in 3-fold serial dilutions, each concentration in triplicate, and the plates were incubated for 72 h at 37°C and 5% CO2. Next, 20 µl of MTS was added to each well, and the plates were incubated for an additional 4 h at 37°C and 5% CO2. The absorbance was measured at 490 nm using a spectrophotometer, and the data were transferred to SigmaPlot 10.0 (Systat Software Inc., Erkrath, Germany) to determine the IC50 values. Doxorubicin (Sigma–Aldrich) was used as a positive control, and untreated wells (100% growth) were used as negative controls in all plates. All compounds were tested in two independent assays.

[2] = Acute toxicity and open-field test in female Swiss mice; format: in vivo
Description: Thirty-day-old female Swiss mice weighing 20–25 g and procured from the Center for the Development of Experimental Models for Medicine and Biology (CEDEME/UNIFESP) served as the subjects for these experiments. […] Rodent chow and water were available ad libitum throughout the experiments.
The compound, solubilized in 10% DMSO aqueous solution, was administered orally in a single dose of 150 and 300 mg/kg of body weight in female Swiss mice. Parameters related to behavior, autonomic functions, neurological activity, and mortality were assessed as toxicity signs. Soon after the administration of the compound, mice were placed in a circular open-field arena (40 cm diameter) with 50-cm-high walls to assess motor deficits. […] After this period, toxicity signs were assessed once a day for two consecutive weeks. The reference drug BZ at 150 mg/kg and vehicle (10% DMSO) were administered as controls.

rhodesain = rhodesain (Trypanosoma brucei rhodesiense, UniProt Q95PM0); assay: Rhodesain fluorescence-based inhibition assay (Z-FR-AMC); format: biochemical; details: Table S3; compound 100 µM
Sequence of rhodesain (Q95PM0 entry or part of it): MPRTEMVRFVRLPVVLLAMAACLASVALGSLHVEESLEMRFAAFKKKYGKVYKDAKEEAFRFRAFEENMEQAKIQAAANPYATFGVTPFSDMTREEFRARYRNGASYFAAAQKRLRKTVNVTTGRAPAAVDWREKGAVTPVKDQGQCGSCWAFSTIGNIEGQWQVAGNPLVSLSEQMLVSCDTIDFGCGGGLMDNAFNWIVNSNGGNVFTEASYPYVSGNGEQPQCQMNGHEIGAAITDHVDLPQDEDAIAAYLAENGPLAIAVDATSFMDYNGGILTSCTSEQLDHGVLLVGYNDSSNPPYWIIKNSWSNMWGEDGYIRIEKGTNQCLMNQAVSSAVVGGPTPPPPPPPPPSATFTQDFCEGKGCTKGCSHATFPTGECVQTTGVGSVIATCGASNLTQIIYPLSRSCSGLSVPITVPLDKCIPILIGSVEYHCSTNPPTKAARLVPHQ
Description: Rhodesain activity was measured using a fluorescence-based assay as previously described ([Fonseca et al., 2015]). The cleavage rates of the fluorogenic substrate Z-Phe-Arg-aminomethyl coumarin (Z-FR-AMC) were monitored at wavelengths of 340 nm for excitation and 440 nm for emission. All assays were performed in triplicate in a 0.1 M sodium acetate buffer, pH 5.5, with 1 mM beta-mercaptoethanol and 0.01% Triton X-100. The final concentration of rhodesain was 3 nM, and the substrate concentration was 2.5 μM. The cleavage of the substrate was followed by continuous reading for 5 min, and enzyme activity in the presence of 100 μM of each potential inhibitor was calculated based on initial velocity rates compared to DMSO controls. All compounds were tested in triplicate in three independent experiments.

[3] = 150 mg/kg, gavage, five daily doses from day 5 after infection, day 7, female Swiss mice
[4] = 300 mg/kg, gavage, five daily doses, day 7, female Swiss mice
[5] = single oral dose 150 and 300 mg/kg, 2 weeks of observation

SMILES | IC50 at 72 h [1] [µM] | also measured
NC(=O)Cn1c(CCNC(=O)COc2ccccc2)nc2ccccc21 [Compound 28] | > 100 | reduction in parasitemia levels at lower doses (T. cruzi (Y strain); 75 mg/kg and 37.5 mg/kg, Supplementary Figure S10): no reduction; % reduction of peak parasitemia (T. cruzi (Y strain); [3]): 36.9%; increase in the peak parasitemia compared with the vehicle (T. cruzi (Y strain); [4]): 13%; % reduction of peak parasitemia (T. cruzi (Y strain); [4]): -13%; Locomotor deficits (open-field test) ([2]; oral 150 and 300 mg/kg): did not cause locomotor deficits; Mortality [2, 5]: no mortality; Toxicity signs (behavior, autonomic functions, neurological activity) [2, 5]: No toxicity signs
CC(=O)Nc1ccc(OCC(=O)NCCc2nc3ccccc3[nH]2)cc1 [Compound 2] | > 100 | 
O=C(COc1ccccc1[N+](=O)[O-])NCCc1nc2ccccc2[nH]1 [Compound 32] | > 100 | 
C=CCCn1c(CCNC(=O)COc2ccccc2)nc2ccccc21 [Compound 27] | > 100 | 
O=C(COc1ccc(NC(=O)CCCO)cc1)NCCc1nc2ccccc2[nH]1 [Compound 5] | > 100 | 
O=C(COc1ccc2ccccc2c1Br)NCCc1nc2ccccc2[nH]1 [Compound 34] | > 30 | 
Cc1ccccc1OCC(=O)NCCc1nc2ccccc2o1 [Compound 37] | > 100 | 
O=C(COc1ccccc1Br)NCCc1nc2ccccc2[nH]1 [Compound 18] | > 100 | 
O=C(COc1cccc([N+](=O)[O-])c1)NCCc1nc2ccccc2[nH]1 [Compound 8] | > 100 | 
O=C(COc1ccccc1)NCCc1nc2ccccc2[nH]1 [Compound 1] | > 100 | 
Cc1ccccc1OCC(=O)NCCc1nc2ccccc2[nH]1 [Compound 17] | > 100 | 
O=C(COc1ccc2cc(O)ccc2c1)NCCc1nc2ccccc2[nH]1 [Compound 10] | > 100 | inhibition at 100 µM (rhodesain): 60%
CC(=O)Nc1cccc(OCC(=O)NCCc2nc3ccccc3[nH]2)c1 [Compound 3] | > 100 | inhibition at 100 µM (rhodesain): 41%
O=C(COc1ccccc1)NCCc1nc2ccccc2n1Cc1ccccc1 [Compound 26] | > 100 | 
O=C(COc1ccccc1)NCCc1nc2ccccc2n1CCCOc1ccccc1 [Compound 24] | > 30 | 
O=C(COc1ccc(Br)cc1)NCCc1nc2ccccc2[nH]1 [Compound 33] | > 100 | 
O=C(COc1ccccc1)NCCc1nc2ccccc2n1CCOc1ccccc1 [Compound 20] | > 30 | 
COc1ccc2cc(OCC(=O)NCCc3nc4ccccc4[nH]3)ccc2c1 [Compound 12] |  | inhibition at 100 µM (rhodesain): 56%
O=C(COc1ccc2ccccc2c1)NCCc1nc2ccccc2[nH]1 [Compound 35] | > 100 | 
O=C(Cn1ccnc1[N+](=O)[O-])NCc1ccccc1 [BZ, benznidazole, reference compound] | > 100 | % reduction of peak parasitemia (T. cruzi (Y strain); [3]): 100%
Nc1cccc(OCC(=O)NCCc2nc3ccccc3[nH]2)c1 [Compound 9] |  | inhibition at 100 µM (rhodesain): 40%
C=CCCn1c(CCNC(=O)COc2ccccc2Cl)nc2ccccc21 [Compound 38] | > 100 | 
O=C(COc1ccc2ccc(O)cc2c1)NCCc1nc2ccccc2[nH]1 [Compound 11] |  | inhibition at 100 µM (rhodesain): 67%
